Assay results from ChEMBL document CHEMBL1201862, “PubChem BioAssay data set” (2004).
The source made the active and inactive calls.

Tests used:
[1] = fluconazole-exposed Candida albicans growth modulators – fluorescence, retest, confirmation (AID 2467); format: functional, cell-based
[2] = biological target: T1, Protein RecA (Mycobacterium tuberculosis, UniProt P9WHJ3); test: Fluorescence Cell-Free Homogeneous Dose Retest to Identify Inhibitors of RecA-Intein Splicing Activity. [Related pubchem assays (depositor defined):AID2097, AID2223, AID489010, AID492950]; format: functional
T1 sequence (P9WHJ3 whole entry): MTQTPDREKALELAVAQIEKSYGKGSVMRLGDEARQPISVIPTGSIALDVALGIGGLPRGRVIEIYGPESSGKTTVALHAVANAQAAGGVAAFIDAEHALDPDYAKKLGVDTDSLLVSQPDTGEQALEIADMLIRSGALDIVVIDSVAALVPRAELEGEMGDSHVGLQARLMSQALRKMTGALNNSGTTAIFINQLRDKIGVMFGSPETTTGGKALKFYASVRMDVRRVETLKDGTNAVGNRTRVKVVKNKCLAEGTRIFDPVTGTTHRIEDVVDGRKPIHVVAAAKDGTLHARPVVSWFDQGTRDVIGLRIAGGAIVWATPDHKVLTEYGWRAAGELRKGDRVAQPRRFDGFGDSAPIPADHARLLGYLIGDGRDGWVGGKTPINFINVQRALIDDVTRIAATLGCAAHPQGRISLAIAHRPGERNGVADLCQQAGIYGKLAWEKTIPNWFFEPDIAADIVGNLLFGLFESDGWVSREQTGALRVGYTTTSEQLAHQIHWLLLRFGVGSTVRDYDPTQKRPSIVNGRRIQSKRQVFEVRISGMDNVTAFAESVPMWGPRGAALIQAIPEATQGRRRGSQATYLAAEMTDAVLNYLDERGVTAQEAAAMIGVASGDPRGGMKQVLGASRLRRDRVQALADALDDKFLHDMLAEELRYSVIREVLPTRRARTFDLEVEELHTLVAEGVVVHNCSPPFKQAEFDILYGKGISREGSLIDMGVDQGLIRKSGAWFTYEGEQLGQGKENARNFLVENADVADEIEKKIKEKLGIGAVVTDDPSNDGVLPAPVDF

[3] = tested on: INS1; test: INS-1E survival protection against cytokine death – cell-based, luminescence, retest, dose response (AID 449756); format: functional; conditions: Rattus norvegicus;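 also: cell death triggered by IL-1 beta plus TNF-alpha plus IFN-gamma mixture; protective hits raise ATP signal compared with cytokine alone wells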
[4] = biological target: Sphingosine 1-phosphate receptor 2 (Homo sapiens, UniProt O95136); test: Dose Response Cell Based Assay for Antagonists of the S1P2 Receptor. [Related pubchem assays: 856, 736 ]; format: functional
Chain of Sphingosine 1-phosphate receptor 2 (O95136 whole entry): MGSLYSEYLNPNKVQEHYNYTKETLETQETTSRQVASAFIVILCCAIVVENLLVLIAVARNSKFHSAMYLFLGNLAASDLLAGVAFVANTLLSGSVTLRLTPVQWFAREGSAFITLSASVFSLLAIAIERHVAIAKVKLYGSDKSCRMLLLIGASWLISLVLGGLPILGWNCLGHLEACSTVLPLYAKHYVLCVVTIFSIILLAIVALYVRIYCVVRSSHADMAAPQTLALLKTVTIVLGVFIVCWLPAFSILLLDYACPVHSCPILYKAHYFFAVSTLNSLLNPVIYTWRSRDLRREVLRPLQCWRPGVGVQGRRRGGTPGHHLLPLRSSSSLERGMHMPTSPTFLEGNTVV

[5] = Luminescent dose response cell-based high throughput screening assay for inhibitors of the Janus kinase 2 mutant JAK2V617F. [Related pubchem assays: 1446 (Primary screen.), 1521 (Confirmation assay.), 1486 (Counter screen.)]; format: functional
[6] = loss of viability in HepG2 cells – cell-based, CellTiter-Glo, cherry-picked, cytotoxicity control for Shn3 inhibitor project, dose response (AID 624134); format: functional
[7] = activation of miR-122 Renilla sensor silencing – cell-based, Huh7 psiCHECK-miR122, Renilla luciferase, cherry-picked, dose response (AID 651956); format: functional;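 also: huh7 hepatoma cells stably carrying a psiCHECK-2 miR-122 sensor plasmid; renilla luciferase signal reporting endogenous miR-122 activity after 48 h compound exposure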
[8] = biological target: Beta Lactamase (Pseudomonas aeruginosa, UniProt Q932Y6); test: BLA reporter interference, concentration series – BLA reporter cells, FRET fluorescence, artefact control for TLR9-MyD88 binding inhibitor project, dose response (AID 588341); format: cell-based;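 also: cell based assay in CHO-K1 cells stably expressing beta-lactamase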
Chain of Beta Lactamase (Q932Y6 whole entry): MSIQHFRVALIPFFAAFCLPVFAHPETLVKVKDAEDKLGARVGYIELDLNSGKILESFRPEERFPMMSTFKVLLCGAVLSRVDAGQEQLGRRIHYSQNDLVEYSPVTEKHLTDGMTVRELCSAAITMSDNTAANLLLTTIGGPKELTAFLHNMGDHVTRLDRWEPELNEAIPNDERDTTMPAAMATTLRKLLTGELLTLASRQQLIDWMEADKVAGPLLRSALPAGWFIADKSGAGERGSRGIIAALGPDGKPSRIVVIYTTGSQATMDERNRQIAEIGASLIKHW

[9] = non-specific 3'UTR reporter inhibition in Clone20-Shn3RL – cell-based, Renilla luciferase, cherry-picked, counter-screen for Shn3 inhibitor project, dose response (AID 624133); format: functional
[10] = tested on: CHO; test: CHO cell viability loss, potency – luminescence, cytotoxicity control for TLR9-MyD88 binding inhibitor project, dose response (AID 588339); format: functional, cell-based, hamster; conditions: Cricetulus griseus;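 also: CHO cells stably coexpressing TLR9 and MyD88 fusions from primary screen; compound exposure lasted 48 hours before viability readout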
[11] = biological target: T2, Heat shock factor protein 1 (Mus musculus, UniProt P38532); test: decrease of HSF1-responsive luciferase luminescence – cell-based, NIH3T3, dose retest, confirmation (AID 2382); format: functional;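 also: NIH3T3 fibroblasts with HSF1-driven luciferase reporter stressed by proteasome inhibitor MG132; luminescence from HSF1-driven luciferase expression after 8 hours of MG132 stress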
T2 sequence (P38532 whole entry): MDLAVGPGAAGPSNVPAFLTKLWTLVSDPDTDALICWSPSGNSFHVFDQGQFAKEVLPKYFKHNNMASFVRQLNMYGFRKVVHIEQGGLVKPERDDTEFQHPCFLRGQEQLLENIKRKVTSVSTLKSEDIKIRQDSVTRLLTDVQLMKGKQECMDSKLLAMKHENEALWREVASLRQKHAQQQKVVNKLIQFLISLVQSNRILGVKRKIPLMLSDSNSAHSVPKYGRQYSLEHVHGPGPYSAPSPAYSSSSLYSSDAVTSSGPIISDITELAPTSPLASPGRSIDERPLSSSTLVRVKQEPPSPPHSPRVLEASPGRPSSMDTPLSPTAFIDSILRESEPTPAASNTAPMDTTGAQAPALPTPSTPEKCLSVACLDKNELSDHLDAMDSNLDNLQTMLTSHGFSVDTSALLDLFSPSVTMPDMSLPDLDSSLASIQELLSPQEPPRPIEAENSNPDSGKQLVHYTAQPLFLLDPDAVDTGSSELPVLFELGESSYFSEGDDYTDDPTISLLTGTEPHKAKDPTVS

[12] = tested on: HeLa; test: Cytotoxicity counterscreen assay for transcriptional activators of heat shock protein 70 (Hsp70). [Related pubchem assays: 1203, 1252 ]; format: functional; conditions: Homo sapiens;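 also: cells exposed to compound for 16 hours before readout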
[13] = Intein inhibitors as potential Tuberculosis drugs, a cytotoxicity screen. [Related pubchem assays (depositor defined):AID2221, AID2223, AID434968, AID435010, AID449749, AID449750, AID489010]; format: functional
[14] = biological target: T3, Replicative DNA helicase DnaB (Mycobacterium tuberculosis, UniProt P9WMR3); test: DnaB intein splicing inhibitors, dose response, biochemical, cell-free fluorescence (AID 449749); format: functional
T3 sequence (P9WMR3 whole entry): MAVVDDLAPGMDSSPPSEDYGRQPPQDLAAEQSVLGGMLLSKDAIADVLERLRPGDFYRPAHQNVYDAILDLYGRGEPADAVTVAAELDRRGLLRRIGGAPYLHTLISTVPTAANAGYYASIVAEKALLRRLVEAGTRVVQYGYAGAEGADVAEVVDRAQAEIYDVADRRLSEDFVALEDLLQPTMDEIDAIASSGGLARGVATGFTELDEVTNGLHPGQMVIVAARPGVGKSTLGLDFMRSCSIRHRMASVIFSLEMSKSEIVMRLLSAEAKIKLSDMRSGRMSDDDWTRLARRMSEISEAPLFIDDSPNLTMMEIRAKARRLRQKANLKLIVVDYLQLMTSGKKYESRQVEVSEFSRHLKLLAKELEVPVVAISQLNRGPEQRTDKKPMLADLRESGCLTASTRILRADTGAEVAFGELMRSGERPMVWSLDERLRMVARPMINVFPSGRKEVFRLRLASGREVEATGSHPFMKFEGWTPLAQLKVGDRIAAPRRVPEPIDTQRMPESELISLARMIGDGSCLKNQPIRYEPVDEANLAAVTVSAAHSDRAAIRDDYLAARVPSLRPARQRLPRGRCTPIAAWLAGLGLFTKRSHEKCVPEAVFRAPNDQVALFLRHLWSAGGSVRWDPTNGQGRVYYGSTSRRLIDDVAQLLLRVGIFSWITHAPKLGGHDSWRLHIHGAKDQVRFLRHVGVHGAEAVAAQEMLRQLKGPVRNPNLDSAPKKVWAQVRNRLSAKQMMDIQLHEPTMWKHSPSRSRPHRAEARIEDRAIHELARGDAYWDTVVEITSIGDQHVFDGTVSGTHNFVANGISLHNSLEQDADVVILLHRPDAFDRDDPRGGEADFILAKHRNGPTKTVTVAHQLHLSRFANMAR

[15] = Trypanosoma cruzi growth suppression in host cells – NIH3T3 host cells, beta-gal luminescence, confirmation (AID 2044); format: functional, cell-based;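 also: intracellular parasites grown in NIH/3T3 mouse fibroblasts as host cells; luminescent beta-galactosidase reporter signal from transgenic T. cruzi replicating inside host cells; inhibitors lower the luminescence signal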
[16] = NIH-3T3 fibroblast cytotoxicity, dose response, cytotoxicity control, cell-based, fluorescence, Alamar Blue, secondary assay (AID 2327); format: functional;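 also: NIH-3T3 mouse fibroblasts cultured with fluconazole at 8 µg/mL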
[17] = reduction of Shn3 3'UTR-driven luciferase in osteoblasts – cell-based, Clone20 osteoblasts, firefly luciferase, cherry-picked, dose response (AID 624132); format: functional;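 also: firefly luciferase luminescence from reporter carrying the Shn3 3'UTR in osteoblasts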
[18] = NIH3T3 cell viability loss – ATP luminescence, mouse fibroblasts, counter-screen, dose response (AID 2010); format: functional, cell-based;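 also: cells exposed to compound for about 90 hours before reading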
[19] = general mammalian cell viability loss – activator set, cherry-pick, cytotoxicity control for miR-122 modulator project, dose response (AID 720690); format: functional, cell-based;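 also: HEK293T human cells scored for general mammalian cytotoxicity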
[20] = general mammalian cell viability loss – inhibitor set, cherry-pick, set 2, cytotoxicity control for miR-122 modulator project, dose response (AID 720697); format: functional, cell-based
[21] = Counterscreen for IDE inhibitors: Luminescence-based cell-based high throughput dose response assay to identify compounds that are cytotoxic to HEK cells. [Related pubchem assays: 434962 (Primary screen (IDE inhibitors in singlicate)), 449730 (Counterscreen (Cytotoxicity in triplicate)), 435028 (Confirmation (IDE inhibitors in triplicate)) …; format: functional; conditions: HEK293
[22] = biological target: T4, Insulin-degrading enzyme (Homo sapiens, UniProt P14735); test: Dose Response: Fluorescence polarization-based cell-based high throughput dose response assay for inhibitors of insulin-degrading enzyme (IDE). [Related pubchem assays: 434962 (Primary screen (IDE inhibitors in singlicate)), 449730 (Counterscreen (Cytotoxicity in triplicate)), 435028 (Confirmation (IDE inhibitors in triplicate)), 434984 (Summary …; format: functional
T4 sequence (P14735 whole entry): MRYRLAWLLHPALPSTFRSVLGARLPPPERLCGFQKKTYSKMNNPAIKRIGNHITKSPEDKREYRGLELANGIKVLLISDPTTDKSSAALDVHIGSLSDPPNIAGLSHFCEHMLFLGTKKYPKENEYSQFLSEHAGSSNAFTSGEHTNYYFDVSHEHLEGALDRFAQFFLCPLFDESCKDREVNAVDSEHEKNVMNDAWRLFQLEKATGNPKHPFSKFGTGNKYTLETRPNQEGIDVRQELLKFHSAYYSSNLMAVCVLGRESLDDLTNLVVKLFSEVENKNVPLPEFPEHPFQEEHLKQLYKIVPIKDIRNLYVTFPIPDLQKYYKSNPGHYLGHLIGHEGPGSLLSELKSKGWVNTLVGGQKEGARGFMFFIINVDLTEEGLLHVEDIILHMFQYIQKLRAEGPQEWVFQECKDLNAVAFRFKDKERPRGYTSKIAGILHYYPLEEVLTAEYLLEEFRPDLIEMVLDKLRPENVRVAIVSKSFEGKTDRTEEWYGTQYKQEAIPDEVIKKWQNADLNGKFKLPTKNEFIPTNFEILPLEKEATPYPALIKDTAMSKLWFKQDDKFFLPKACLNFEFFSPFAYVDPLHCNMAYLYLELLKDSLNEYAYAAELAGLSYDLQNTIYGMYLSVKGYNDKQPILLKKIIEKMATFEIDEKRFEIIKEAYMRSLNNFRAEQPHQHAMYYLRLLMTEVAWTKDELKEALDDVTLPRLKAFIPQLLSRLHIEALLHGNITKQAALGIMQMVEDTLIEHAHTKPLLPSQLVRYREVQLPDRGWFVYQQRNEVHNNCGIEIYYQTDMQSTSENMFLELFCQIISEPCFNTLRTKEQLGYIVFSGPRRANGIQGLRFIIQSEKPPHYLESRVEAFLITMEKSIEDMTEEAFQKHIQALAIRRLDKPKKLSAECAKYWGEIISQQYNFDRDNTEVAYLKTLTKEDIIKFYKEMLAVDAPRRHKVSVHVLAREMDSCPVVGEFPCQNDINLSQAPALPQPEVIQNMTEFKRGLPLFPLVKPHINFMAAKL

[23] = biological target: T5, NADPH oxidase 1 (Homo sapiens, UniProt Q9Y5S8); format: functional, cell-based;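 also: Cell-based assay with luminescence read-out, IC50 derived from inhibitor dose-response curves; intracellular ROS from endogenous NOX1 in intact HT29 colon cancer cells; potency of inhibitors that lower the ROS luminescence signal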
T5 sequence (Q9Y5S8 whole entry): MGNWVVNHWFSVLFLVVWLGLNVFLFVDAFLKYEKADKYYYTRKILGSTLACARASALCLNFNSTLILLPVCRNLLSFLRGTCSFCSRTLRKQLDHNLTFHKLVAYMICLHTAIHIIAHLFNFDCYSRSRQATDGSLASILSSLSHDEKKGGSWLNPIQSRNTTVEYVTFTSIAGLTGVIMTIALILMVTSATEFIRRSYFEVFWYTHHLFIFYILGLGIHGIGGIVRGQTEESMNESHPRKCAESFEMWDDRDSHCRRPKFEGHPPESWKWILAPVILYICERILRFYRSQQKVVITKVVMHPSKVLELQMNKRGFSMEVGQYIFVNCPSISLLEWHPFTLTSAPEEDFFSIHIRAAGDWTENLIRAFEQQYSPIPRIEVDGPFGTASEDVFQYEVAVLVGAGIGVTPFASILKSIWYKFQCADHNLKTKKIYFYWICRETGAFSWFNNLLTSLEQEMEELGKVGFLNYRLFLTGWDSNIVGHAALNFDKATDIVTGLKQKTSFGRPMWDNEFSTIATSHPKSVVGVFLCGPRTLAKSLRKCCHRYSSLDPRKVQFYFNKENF

With `O=C(OCn1ncc(Cl)c(Cl)c1=O)c1ccccc1Cl` the EC50 [1] was > 38 µM (not active), the EC50 [2] was 0.669 µM (active) and the AC50 [3] was 5.37 µM (active). For the same molecule, the IC50 [4] was 3.15 µM (active), the IC50 [5] was 0.401 µM (active) and the AC50 [6] was 27.3 µM (active). For the same molecule, the AC50 [7] was 11.2 µM (active), the IC50 [8] was > 49.8 µM (inactive) and the AC50 [9] was 3.56 µM (active). The IC50 [10] was 1.64 µM (active), the EC50 [11] was 1.99 µM (active) and the CC50 [12] was > 11 µM (not active). For the same molecule, the CC50 [13] was 5.38 µM (active), the AC50 [14] was 3.32 µM (active) and the EC50 [15] was 1.04 µM (active). The EC50 [16] was 2.57 µM (inconclusive), the AC50 [17] was 3.56 µM (active) and the EC50 [18] was 1.07 µM (active). For the same molecule, the AC50 [19] was 4.89 µM (active) and the AC50 [20] was 4.39 µM (active).

With `Oc1sc(/C=N/c2ccc(F)cc2)c2ccccc12` the IC50 [21] was > 55.7 µM (not active) and the IC50 [22] was > 55.9 µM (not active).

For `OCCN1CCN(CCCN2c3ccccc3Sc3ccc(C(F)(F)F)cc32)CC1` [FLUPHENAZINE], the IC50 [23] was > 17 µM (not active).
